# Results taken from a polymer gas permeability compilation.
SMILES,CH4 permeability [Barrer],CO2 permeability [Barrer],H2 permeability [Barrer],N2 permeability [Barrer],O2 permeability [Barrer]
*O[Si](C)(C)c1ccc([Si](*)(C)C)cc1 (repeat unit),12,65,,,11
*C(=C(*)c1ccc(S(=O)(=O)O)cc1)c1ccc(C(C)(C)C)cc1 (repeat unit),,340,,11,45
*CC(*)(C)C(=O)OCCOCC (repeat unit),1.23,8.56,,0.385,1.45
*C(=C(*)c1ccc(CCCC)cc1)c1ccccc1 (repeat unit),,160,,11,37
*O[Si](C)(C)CC[Si](*)(C)C (repeat unit),597,1880,,,394
*C(=C(*)c1ccc(-c2ccccc2)cc1)c1ccccc1 (repeat unit),170,1300,440,65,180
*[Si](C)(C)c1cccc([Si](*)(C)C)c1 (repeat unit),,,,31.9,75.6
*Oc1ccc(C(C)(C)c2ccc(Oc3c(F)c(F)c(COC(C4CCCC(C(OCc5c(F)c(F)c(*)c(F)c5F)(C(F)(F)F)C(F)(F)F)C4)(C(F)(F)F)C(F)(F)F)c(F)c3F)cc2)cc1 (repeat unit),0.32,6.4,17,0.48,2.1
*Oc1c(C)cc(C(C)(C)c2cc(C)c(OC(=O)c3cccc(C(*)=O)c3)c(Br)c2)cc1Br (repeat unit),0.151,5.45,23.3,0.219,1.52
*C(=C(*)c1ccc(C(C)(C)C)cc1)c1ccc(O)cc1 (repeat unit),46,530,340,23,82
*Oc1ccc(S(=O)(=O)c2ccc(Oc3c(C)cc(C(c4cc(C)c(*)c(C)c4)(C(F)(F)F)C(F)(F)F)cc3C)cc2C(O)(C(F)(F)F)C(F)(F)F)c(C(O)(C(F)(F)F)C(F)(F)F)c1 (repeat unit),,81,,5.92,14
*Nc1ccc(C(=O)c2ccc(NC(=O)c3cc(C(*)=O)cc(C(C)(C)C)c3)cc2)cc1 (repeat unit),,4.96,,0.23,1.16
*c1cc(-c2nc3cc(-c4ccc5[nH]c(*)nc5c4)ccc3[nH]2)cc(C(C)(C)C)c1 (repeat unit),0.05,1.91,10.7,0.06,0.42
*=CC1CC(C=*)C(C(F)(F)F)(C(F)(F)F)C1(F)F (repeat unit),9.54,102,,10.7,27.7
*C(=C(*)c1ccc2c(c1)Cc1ccccc1-2)c1ccc([Si](C)(C)C)cc1 (repeat unit),2000,6450,3100,950,1650
*CC(*)(C)C(=O)OCC(F)(F)C(F)(F)C(F)(F)C(F)(F)C(F)(F)C(F)(F)C(F)(F)F (repeat unit),14,130,82,15,30
*OC1OC(COC(=O)NC(C)(C)C)C(*)C(OCC)C1OCC (repeat unit),9.45,94.5,73,4.3,16
*C(=C(*)c1ccc2c(c1)C(C)(C)CC2(C)C)c1ccc(Cl)cc1 (repeat unit),22700,35200,20600,9200,11700
*Oc1c(Br)cc(C(c2cc(Br)c(OC(=O)c3cccc(C(*)=O)c3)c(Br)c2)(C(F)(F)F)C(F)(F)F)cc1Br (repeat unit),0.597,35.6,65,1.07,6.75
*Nc1ccc(*)cc1OC (repeat unit),,1.06,6.04,0.047,0.202
*CO* (repeat unit),,0.45,,0.024,0.09
*C(=C(*)c1ccc(S(=O)(=O)O)cc1)c1ccc(S(=O)(=O)O)cc1 (repeat unit),,21,,0.28,2.5
*CC(O)CO* (repeat unit),,0.012,0.0228,,0.0038
*=CC1CC(C=*)C(COS(=O)(=O)c2ccc(C)cc2)C1 (repeat unit),,,,0.06,0.37

# Results, then the molecule that gave them:
CH4 permeability [Barrer],CO2 permeability [Barrer],H2 permeability [Barrer],N2 permeability [Barrer],O2 permeability [Barrer],SMILES
0.07,2.1,11,0.091,0.64,*Oc1ccc(C(C)(C)c2ccc(Oc3ccc(S(=O)(=O)c4ccc(*)cc4)cc3)c(C)c2)cc1C (repeat unit)
0.36,11,,0.56,2.61,*c1cc(C(=O)OCCC(F)(F)C(F)(F)C(F)(F)C(F)(F)C(F)(F)C(F)(F)F)cc(N2C(=O)c3ccc(Oc4ccc5c(c4)C(=O)N(*)C5=O)cc3C2=O)c1 (repeat unit)
0.0578,2.34,,0.095,0.73,*c1cccc(S(=O)(=O)c2cccc(N3C(=O)c4ccc(C(c5ccc6c(c5)C(=O)N(*)C6=O)(C(F)(F)F)C(F)(F)F)cc4C3=O)c2)c1 (repeat unit)
0.26,6.62,,0.29,1.46,*c1ccc(Sc2ccc(Sc3ccc(Sc4ccc(Sc5ccc(N6C(=O)c7ccc(C(c8ccc9c(c8)C(=O)N(*)C9=O)(C(F)(F)F)C(F)(F)F)cc7C6=O)cc5)cc4)cc3)cc2)cc1 (repeat unit)
0.013,1.27,,0.071,0.284,*Nc1ccc(Oc2c(F)c(F)c(Oc3ccc(NC(=O)CN4C(=O)c5ccc(C(*)=O)cc5C4=O)cc3)c(F)c2F)cc1 (repeat unit)
0.41,22.6,,1.12,13.1,*c1ccc(-c2ccc(Oc3ccc4c(c3)C3(CC4(C)C)CC(C)(C)c4ccc(Oc5ccc(-c6ccc(N7C(=O)c8ccc(Oc9ccc%10c(c9)C(=O)N(*)C%10=O)cc8C7=O)cc6)cc5C(F)(F)F)cc43)c(C(F)(F)F)c2)cc1 (repeat unit)
0.125,6.11,23.7,0.259,1.57,*c1ccc(Oc2cccc(N3C(=O)c4ccc(C(c5ccc6c(c5)C(=O)N(*)C6=O)(C(F)(F)F)C(F)(F)F)cc4C3=O)c2)cc1 (repeat unit)
0.69,19.9,61.3,1.26,4.88,*c1ccc(Oc2ccc(C3(c4ccc(Oc5ccc(N6C(=O)c7ccc(C(c8ccc9c(c8)C(=O)N(*)C9=O)(C(F)(F)F)C(F)(F)F)cc7C6=O)cc5)cc4)c4ccccc4-c4ccccc43)cc2)cc1 (repeat unit)
0.0222,1.22,5.08,0.0357,0.242,*c1ccc(Cc2ccc(N3C(=O)c4ccc(Oc5ccc(Oc6ccc7c(c6)C(=O)N(*)C7=O)cc5)cc4C3=O)cc2)cc1 (repeat unit)
0.56,21.4,,1.1,5.71,*c1ccc(Oc2ccc(C3(c4ccc(Oc5ccc(N6C(=O)c7ccc(C(c8ccc9c(c8)C(=O)N(*)C9=O)(C(F)(F)F)C(F)(F)F)cc7C6=O)c(C)c5)cc4)OC(=O)c4ccccc43)cc2)cc1C (repeat unit)
0.024,1,3.8,0.029,0.2,*Oc1ccc(Oc2ccc(C(=O)c3ccc(*)cc3)cc2)c(-c2cccc(C)c2)c1 (repeat unit)
0.17,5.8,,0.23,1.12,*OC(=O)c1ccc(C(=O)Oc2ccc(C(C)(C)c3ccc(O*)c(C)c3)cc2C)cc1 (repeat unit)
238,3360,2380,180,680,*c1c(C)cc2c(c1C)C1c3ccccc3C2c2cc(C)c(-n3c(=O)c4cc5c(=O)n(*)c(=O)c5cc4c3=O)c(C)c21 (repeat unit)
0.092,2.2,9.1,0.105,0.6,*OC(=O)Oc1ccc(C2(c3ccc(*)cc3)CCCCC2)cc1 (repeat unit)
0.327,7.2,17.3,0.332,1.86,*Oc1ccc(C2(c3ccc(Oc4ccc(S(=O)(=O)c5ccc(*)cc5)cc4)cc3)C3CC4CC(C3)CC2C4)cc1 (repeat unit)
0.0432,1.5,,0.0661,0.39,*Oc1ccc(S(=O)(=O)c2ccc(Oc3ccc(C(C)(C)c4cccc(*)c4)cc3)cc2)cc1 (repeat unit)
0.0055,0.335,,0.0107,0.0957,*c1ccc(Cc2ccc(N3C(=O)c4ccc(-c5ccc6c(c5)C(=O)N(*)C6=O)cc4C3=O)cc2Cl)c(Cl)c1 (repeat unit)
0.678,11.6,,0.625,2.5,*Oc1ccc(C(C)(C)c2ccc(OC(=O)c3ccc(C(*)=O)cc3)cc2)cc1 (repeat unit)
0.0311,0.963,,0.0398,0.259,*Oc1ccc(Oc2ccc(C(=O)c3ccc(*)cc3)cc2)cc1 (repeat unit)
